Source: US9980945B2, “Benzoisoxazole-substituted compounds as MGLUR4 allosteric potentiators, compositions, and methods of treating neurological dysfunction” (Vanderbilt University, priority 2015, dated 2018)
pEC50: −log10 of the molar value.

What follows are molecules tested against mGluR4 (UniProt Q14833) (assay: mGluR4 potentiation assay (EC50 for potentiation at EC20 agonist; fluorometric plate reader, Ca2+ or thallium dye)). Details: potentiation of mGluR4; species of receptor not given.
Assay type: cell-based
Procedure: The disclosed compounds and compositions can be evaluated for their ability to act as a potentiator of metabotropic glutamate receptor activity, in particular mGluR4 activity, by any suitable known methodology known in the art. For example, Chinese Hamster Ovary (CHO) cells transacted with human mGluR4 or HEK cells co-transfected with rat mGluR4 and the G-protein regulated Inwardly Rectifying Potassium channel (GIRK) were plated in clear bottom assay plates for assay in a Hamamatsu FDSS Fluorometric Plate Reader. The cells were loaded with either a Ca2+-sensitive fluorescent dye or the thallium responsive dye and the plates were washed and placed into a suitable kinetic plate reader. For human mGluR4 assays, a fluorescence baseline was established for 3-5 seconds, the disclosed compounds were then added to the cells, and the response in cells was measured. Approximately two and a half minutes later, a concentration of mGluR4 orthosteric agonist (e.g. glutamate or L-AP4) eliciting approximately 20% (EC20) of the maximal agonist response was added to the cells, and the response was measured. Two minutes later, a concentration of mGluR4 agonist (e.g. glutamate or L-AP4) eliciting 80% (EC80) of the maximal agonist response was added to the cells, and the response was measured. For rat mGluR4/GIRK experiments, a baseline was established for approximately five seconds, disclosed compounds were added, and either an EC20 or EC80 concentration of agonist was added approximately two and one half minutes later. Potentiation of the agonist response of mGluR4 by the disclosed compounds was observed as an increase in response to the EC20 concentration of agonist in the presence of compound compared to the response to agonist in the absence of compound. Similarly, antagonism of the agonist response of mGluR4 by the disclosed compounds was observed as a decrease in response to the EC80 concentration of agonist in the presence of compound compared to the response to agonist in the absence of compound.
The above described assay operated in two modes. In the first mode, a range of concentrations of the disclosed compounds are added to cells, followed by a single fixed concentration of agonist. If the compound acts as a potentiator, an EC50 so value for potentiation and a maximum extent of potentiation by the compound at this concentration of agonist is determined by non-linear curve fitting. If the compound acts as a noncompetitive antagonist, an IC50 value is determined by non-linear curve fitting. In the second mode, several fixed concentrations of the disclosed compounds are added to various wells on a plate, followed by a range in concentrations of agonist for each concentration of disclosed compound. The EC50 values for the agonist at each concentration of compound are determined by non-linear curve fitting. A decrease in the EC50 value of the agonist with increasing concentrations of the sample compound (a leftward shift of the agonist concentration-response curve) is an indication of the degree of mGluR4 potentiation at a given concentration of the sample compound. A decrease in the maximal response of the agonist with increasing concentrations of the sample compounds, with or without a rightward shift in agonist potency, is an indication of the degree of noncompetitive antagonism at mGluR4. The second mode also indicates whether the sample compounds also affect the maximum response to mGluR4 to agonists.

pEC50	Compound
5.51	CC(C)(C)Cc1noc2cc(Nc3n[nH]c4ncccc34)ccc12 [Example 20, 3-neopentyl-N-(1H-pyrazolo[3,4-b]pyridin-3-yl)benzo[d]isoxazol-6-amine]
< 5.00	c1cc2oncc2cc1Nc1n[nH]c2c1CCCC2 [Example 21, N-(4,5,6,7-tetrahydro-1H-indazol-3-yl)benzo[d]isoxazol-5-amine]
7.12	Cc1noc2ccc(Nc3n[nH]c4cccnc34)cc12 [Example 22, 3-methyl-N-(1H-pyrazolo[4,3-b]pyridin-3-yl)benzo[d]isoxazol-5-amine]
6.91	Cc1noc2ccc(Nc3n[nH]c4nccnc34)cc12 [Example 23, 3-methyl-N-(1H-pyrazolo[3,4-b]pyrazin-3-yl)benzo[d]isoxazol-5-amine]
6.53	Cc1noc2ccc(Nc3n[nH]c4ncccc34)cc12 [Example 24, 3-methyl-N-(1H-pyrazolo[3,4-b]pyridin-3-yl)benzo[d]isoxazol-5-amine]
< 5.00	CCc1noc2ccc(Nc3n[nH]c4cccnc34)cc12 [Example 25, 3-ethyl-N-(1H-pyrazolo[4,3-b]pyridin-3-yl)benzo[d]isoxazol-5-amine]
5.92	c1cnc2c(Nc3ccc4c(OC5CCOCC5)noc4c3)n[nH]c2c1 [Example 26, N-(1H-pyrazolo[4,3-b]pyridin-3-yl)-3-((tetrahydro-2H-pyran-4-yl)oxy)benzo[d]isoxazole-6-amine]
5.89	c1cnc2c(Nc3ccc4c(OCC5CCCCO5)noc4c3)n[nH]c2c1 (centres unmarked) [Example 27, N-(1H-pyrazolo[4,3-b]pyridin-3-yl)-3-((tetrahydro-2H-pyran-2-yl)methoxy)benzo[d]isoxazole-6-amine]
5.73	CC1CN(c2noc3cc(Nc4n[nH]c5cccnc45)ccc23)CC(C)O1 (centres unmarked) [Example 28, 3-(2,6-dimethylmorpholino)-N-(1H-pyrazolo[4,3-b]pyridin-3-yl)benzo[d]isoxazol-6-amine]
6.60	O=C(NC1CC(F)(F)C1)c1noc2cc(Nc3n[nH]c4cccnc34)ccc12 [Example 29, 6-((1H-pyrazolo[4,3-b]pyridin-3-yl)amino)-N-(3,3-difluorocyclobutyl)benzo[d]isoxazole-3-carboxamide]
< 5.00	O=C(c1noc2cc(Nc3n[nH]c4cccnc34)ccc12)N1CCC(F)(F)C1 [Example 30, (6-((1H-pyrazolo[4,3-b]pyridin-3-yl)amino)benzo[d]isoxazol-3-yl)(3,3-difluoropyrrolidin-1-yl)methanone]
6.19	CC(c1ccc2c(cnn2C)c1)c1noc2cc(Nc3n[nH]c4cccnc34)ccc12 (centres unmarked) [Example 31, 3-(1-(1-methyl-1H-indazol-5-yl)ethyl)-N-(1H-pyrazolo[4,3-b]pyridin-3-yl)benzo[d]isoxazol-6-amine]
7.02	COc1ccc(Cc2noc3cc(Nc4n[nH]c5cccnc45)ccc23)cn1 [Example 32, 3-((6-methoxypyridin-3-yl)methyl)-N-(1H-pyrazolo[4,3-b]pyridin-3-yl)benzo[d]isoxazol-6-amine]
7.36	c1cnc2c(Nc3ccc4c(Cc5ccc6[nH]ncc6c5)noc4c3)n[nH]c2c1 [Example 33, 3-((1H-indazol-5-yl)methyl)-N-(1H-pyrazolo[4,3-b]pyridin-3-yl)benzo[d]isoxazol-6-amine]
5.55	CC1(COc2noc3cc(Nc4n[nH]c5cccnc45)ccc23)COC1 [Example 41, 3-[(3-methyloxetan-3-yl)methoxy]-N-(1H-pyrazolo[4,3-b]pyridin-3-yl)-1,2-benzoxazol-6-amine]
6.17	O=C(NC1CCC1)c1noc2cc(Nc3n[nH]c4cccnc34)ccc12 [Example 53, N-cyclobutyl-6-(1H-pyrazolo[4,3-b]pyridin-3-ylamino)-1,2-benzoxazole-3-carboxamide]
6.12	O=C(NC1CC(F)C1)c1noc2cc(Nc3n[nH]c4cccnc34)ccc12 (centres unmarked) [Example 54, N-(3-fluorocyclobutyl)-6-(1H-pyrazolo[4,3-b]pyridin-3-ylamino)-1,2-benzoxazol-3-carboxamide]
6.27	CC(C)(C)CNCc1noc2cc(Nc3n[nH]c4cccnc34)ccc12 [Example 77, 3-[(2,2-dimethylpropylamino)methyl]-N-(1H-pyrazolo[4,3-b]pyridin-3-yl)-1,2-benzoxazol-6-amine]

pEC50	Compound
6.21	C[C@@H](NCc1noc2cc(Nc3n[nH]c4cccnc34)ccc12)C(C)(C)C [Example 79, N-(1H-pyrazolo[4,3-b]pyridin-3-yl)-3-[[[(1R)-1,2,2-trimethylpropyl]amino]methyl]-1,2-benzoxazol-6-amine]
7.01	CCC(CC)c1noc2cc(Nc3n[nH]c4nccnc34)ccc12 [Example 83, 3-(1-ethylpropyl)-N-(1H-pyrazolo[3,4-b]pyrazin-3-yl)-1,2-benzoxazol-6-amine]
6.28	CCC(CC)c1noc2cc(Nc3n[nH]c4ncccc34)ccc12 [Example 84, 3-(1-ethylpropyl)-N-(1H-pyrazolo[3,4-b]pyridin-3-yl)-1,2-benzoxazol-6-amine]
6.88	CCC(CC)c1noc2cc(Nc3n[nH]c4cccnc34)ccc12 [Example 85, 3-(1-ethylpropyl)-N-(1H-pyrazolo[4,3-b]pyridin-3-yl)-1,2-benzoxazol-6-amine]
6.93	CCCC(C)c1noc2cc(Nc3n[nH]c4cccnc34)ccc12 (centres unmarked) [Example 94, 3-(1-methylbutyl)-N-(1H-pyrazolo[4,3-b]pyridin-3-yl)-1,2-benzoxazol-6-amine]
6.17	CCCC(C)c1noc2cc(Nc3n[nH]c4ncccc34)ccc12 (centres unmarked) [Example 95, 3-(1-methylbutyl)-N-(1H-pyrazolo[3,4-b]pyridin-3-yl)-1,2-benzoxazol-6-amine]
6.38	CCCC(C)c1noc2cc(Nc3n[nH]c4ncc(F)cc34)ccc12 (centres unmarked) [Example 96, N-(5-fluoro-1H-pyrazolo[3,4-b]pyridin-3-yl)-3-(1-methylbutyl)-1,2-benzoxazol-6-amine]
6.76	CCCC(C)c1noc2cc(Nc3n[nH]c4nccnc34)ccc12 (centres unmarked) [Example 98, 3-(1-methylbutyl)-N-(1H-pyrazolo[3,4-b]pyrazin-3-yl)-1,2-benzoxazol-6-amine]
6.72	FC(F)(F)CCc1noc2cc(Nc3n[nH]c4nccnc34)ccc12 [Example 100, N-(1H-pyrazolo[3,4-b]pyrazin-3-yl)-3-(3,3,3-trifluoropropyl)-1,2-benzoxazol-6-amine]
6.67	Cc1noc2ccc(Nc3n[nH]c4ncc(F)cc34)cc12 [Example 104, N-(5-fluoro-1H-pyrazo!o[3,4-b]pyridin-3-yl)-3-methyl-1,2-benzoxazol-5-amine]
7.11	Cc1noc2c(F)cc(Nc3n[nH]c4cccnc34)cc12 [Example 105, 7-fluoro-3-methyl-N-(1H-pyrazolo[4,3-b]pyridin-3-yl)-1,2-benzoxazol-5-amine]
7.64	Cc1noc2c(F)cc(Nc3n[nH]c4nccnc34)cc12 [Example 106, 7-fluoro-3-methyl-N-(1H-pyrazolo[3,4-b]pyrazin-3-yl)-1,2-benzoxazol-5-amine]
7.27	Cc1noc2c(F)cc(Nc3n[nH]c4ncccc34)cc12 [Example 107, 7-fluoro-3-methyl-N-(1H-pyrazolo[3,4-b]pyridin-3-yl)-1,2-benzoxazol-5-amine]
6.38	FC(F)(F)CCc1noc2cc(Nc3n[nH]c4cccnc34)ccc12 [Example 109, N-(1H-pyrazolo[4,3-b]pyridin-3-yl)-3-(3,3,3-trifluoropropyl)-1,2-benzoxazol-6-amine]
7.13	Cn1ncc2cc(Cc3noc4cc(Nc5n[nH]c6cccnc56)ccc34)ccc21 [Example 112, 3-[(1-methylindazol-5-yl)methyl]-N-(1H-pyrazolo[4,3-b]pyridin-3-yl)-1,2-benzoxazol-6-amine]
7.37	Cn1ncc2cc(Cc3noc4cc(Nc5n[nH]c6nccnc56)ccc34)ccc21 [Example 114, 3-[(1-methylindazol-5-yl)methyl]-N-(1H-pyrazolo[3,4-b]pyrazin-3-yl)-1,2-benzoxazol-6-amine]
5.24	c1cnc2c(Nc3ccc4c(CN5CCOCC5)noc4c3)n[nH]c2c1 [Example 133, 3-(morpholinomethyl)-N-(1H-pyrazolo[4,3-b]pyridin-3-yl)-1,2-benzoxazol-6-amine; 2,2,2-trifluoroacetic acid]
